The text below walks through data of patent US8901147B2, “Bi-heteroaryl compounds as Vps34 inhibitors” (Novartis AG, priority 2010, dated 2014).

SMILES strings stand for the structures.

Sequence of recombinant human Vps34 (Q8NEB9 whole entry): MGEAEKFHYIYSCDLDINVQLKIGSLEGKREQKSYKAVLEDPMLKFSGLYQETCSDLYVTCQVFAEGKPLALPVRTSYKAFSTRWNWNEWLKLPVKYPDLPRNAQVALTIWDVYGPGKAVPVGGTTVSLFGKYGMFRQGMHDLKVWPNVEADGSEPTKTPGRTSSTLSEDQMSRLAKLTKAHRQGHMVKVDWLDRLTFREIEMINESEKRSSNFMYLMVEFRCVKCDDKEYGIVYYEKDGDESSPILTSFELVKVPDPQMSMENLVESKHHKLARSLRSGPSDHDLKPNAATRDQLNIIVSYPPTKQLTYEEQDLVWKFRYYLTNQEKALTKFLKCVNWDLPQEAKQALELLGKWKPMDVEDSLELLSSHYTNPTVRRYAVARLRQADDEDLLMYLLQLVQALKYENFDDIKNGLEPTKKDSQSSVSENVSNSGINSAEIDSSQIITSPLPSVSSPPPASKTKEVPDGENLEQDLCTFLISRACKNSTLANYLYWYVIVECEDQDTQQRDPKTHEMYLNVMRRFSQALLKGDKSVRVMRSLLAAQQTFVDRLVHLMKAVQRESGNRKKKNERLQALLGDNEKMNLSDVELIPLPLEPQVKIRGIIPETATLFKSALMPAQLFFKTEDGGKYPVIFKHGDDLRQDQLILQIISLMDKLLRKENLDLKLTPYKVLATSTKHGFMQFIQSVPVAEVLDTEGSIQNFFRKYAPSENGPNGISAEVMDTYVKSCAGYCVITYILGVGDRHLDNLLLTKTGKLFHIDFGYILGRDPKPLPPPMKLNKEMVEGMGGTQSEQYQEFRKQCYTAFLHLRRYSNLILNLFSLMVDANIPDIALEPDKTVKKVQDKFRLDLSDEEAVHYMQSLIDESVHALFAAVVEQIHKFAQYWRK

The test addresses recombinant human Vps34 (Homo sapiens, UniProt Q8NEB9). The test is described as follows: Vps34 KinaseGlo assay. Format: biochemical. Conditions: KinaseGlo luminescence ATP detection; PI/OG substrate; 1 μM ATP; room temperature; 8 concentrations, n=2. Here is the method:
It was then resuspended in 3% OctylGlucoside by vortexing and stored at 4° C. 5 μL of a mix of PI/OG with recombinant human Vps34 were added. Kinase reactions were started by addition of 5 μl of ATP-mix containing in a final volume 10 μL 10 mM TRIS-HCl pH 7.5, 3 mM MgCl2, 50 mM NaCl, 0.05% CHAPS, 1 mM DTT and 1 μM ATP, and occurred at room temperature. Reactions were stopped with 10 μl of KinaseGlo and plates were read 10 minutes later in a Synergy2 reader using an integration time of 0.1 seconds per well.
Turning to `c1cc(Nc2nccc(-c3cnc(NC4CCCCC4)nc3CC3CC3)n2)ccn1` [Example 12b, N^2′-cyclohexyl-4′-(cyclopropylmethyl)-N^2-(pyridin-4-yl)-4,5′-bipyrimidine-2,2′-diamine], the half-maximal inhibitory concentration (IC50) worked out at 570 nM.

`Nc1ncc(-c2ccnc(Nc3ccc4c(c3)OCO4)n2)c(CC2CC2)n1` [Example 15m, N^2-(benzo[d][1,3]dioxol-5-yl)-4′-(cyclopropylmethyl)-4,5′-bipyrimidine-2,2′-diamine]: the IC50 came to 101 nM.

On to `C[C@H](CO)Nc1ncc(-c2ccnc(Nc3ccncc3)n2)c(CC2CC2)n1` [Example 10p, (R)-2-(4′-(cyclopropylmethyl)-2-(pyridin-4-ylamino)-4,5′-bipyrimidin-2′-ylamino)propan-1-ol], for which the IC50 turned out to be 210 nM.

Take `CC(C)(O)CNc1ncc(-c2ccnc(Nc3ccc(S(C)(=O)=O)cc3)n2)c(CC2CC2)n1` [Example 16d, 1-(4′-(cyclopropylmethyl)-2-(4-(methylsulfonyl)phenylamino)-4,5′-bipyrimidin-2′-ylamino)-2-methylpropan-2-ol]: the concentration for half-maximal inhibition (IC50) worked out at 26 nM.

For the compound `c1cc(Nc2nccc(-c3cnc(NC4CCOCC4)nc3CC3CC3)n2)ccn1` [Example 10g, 4′-(cyclopropylmethyl)-N^2-(pyridin-4-yl)-N^2′-(tetrahydro-2H-pyran-4-yl)-4,5′-bipyrimidine-2,2′-diamine], the concentration for half-maximal inhibition (IC50) amounted to 236 nM.

`CNc1ncc(-c2ccnc(N[C@H]3CC[C@H](C(=O)O)CC3)n2)c(CC2CC2)n1` [Example 14n, (1r,4r)-4-(4′-(cyclopropylmethyl)-2′-(methylamino)-4,5′-bipyrimidin-2-ylamino)cyclohexanecarboxylic acid]: the IC50 was 439 nM.

As to `CNc1ncc(-c2ccnc(NC3CCC(O)CC3)n2)c(CC2CC2)n1` (stereo not shown) [Example 14k, 4-(4′-(cyclopropylmethyl)-2′-(methylamino)-4,5′-bipyrimidin-2-ylamino)cyclohexanol], the IC50 came to 857 nM.

For the compound `CNc1ncc(-c2ccnc(Nc3ccc(OC)c(OC)c3)n2)c(CC2CC2)n1` [Example 14q, 4′-(cyclopropylmethyl)-N^2-(3,4-dimethoxyphenyl)-N^2′-methyl-4,5′-bipyrimidine-2,2′-diamine], the IC50 was 862 nM.

Take `CNc1ncc(-c2ccnc(NC3CCN(C)CC3)n2)c(CC2CC2)n1` [Example 14r, 4′-(cyclopropylmethyl)-N^2′-methyl-N^2-(1-methylpiperidin-4-yl)-4,5′-bipyrimidine-2,2′-diamine]: the IC50 came out at 1540 nM.

Consider `CNc1ncc(-c2ccnc(N[C@H]3CC[C@H](O)CC3)n2)c(CC2CC2)n1` [Example 6e, (1r, 4r)-4-(4′-(cyclopropylmethyl)-2′-(methylamino)-4,5′-bipyrimidin-2-ylamino)cyclohexanol], for which the 50% inhibitory concentration (IC50) came out at 111 nM.

Turning to `Cc1nc(N)ncc1-c1ccnc(Nc2ccncc2)n1` [Example 21, 4′-Methyl-N^2-pyridin-4-yl-[4,5′]bipyrimidinyl-2,2′-diamine], the 50% inhibitory concentration (IC50) worked out at 22.2 nM.

For `Nc1ncc(-c2ccnc(Nc3nncs3)n2)c(CC2CC2)n1` [Example 15i, 4′-(cyclopropylmethyl)-N^2-(1,3,4-thiadiazol-2-yl)-4,5′-bipyrimidine-2,2′-diamine], the IC50 was 924 nM.

As for `CC(C)(O)CNc1ncc(-c2ccnc(N[C@H]3CC[C@H](NS(C)(=O)=O)CC3)n2)c(CC2CC2)n1` [Example 16g, N-((1r,4r)-4-(4′-(cyclopropylmethyl)-2′-(2-hydroxy-2-methylpropylamino)-4,5′-bipyrimidin-2-ylamino)cyclohexyl)methanesulfonamide], the concentration for half-maximal inhibition (IC50) is 872 nM.

Turning to `Nc1ncc(-c2ccnc(N[C@H]3CC[C@H](O)CC3)n2)c(CC2CC2)n1` [Example 6b, (1r, 4r)-4-(2′-amino-4′-(cyclopropylmethyl)-4,5′-bipyrimidin-2-ylamino)cyclohexanol], the half-maximal inhibitory concentration (IC50) was found to be 264 nM.

Consider `Nc1ncc(-c2ccnc(Nc3ccc(Cl)cn3)n2)c(CC2CC2)n1` [Example 15v, N^2-(5-chloropyridin-2-yl)-4′-(cyclopropylmethyl)-4,5′-bipyrimidine-2,2′-diamine], for which the IC50 turned out to be 193 nM.

With `CNc1ncc(-c2ccnc(Nc3cccnc3)n2)c(CC2CC2)n1` [Example 14l, 4′-(cyclopropylmethyl)-N^2′-methyl-N^2-(pyridin-3-yl)-4,5′-bipyrimidine-2,2′-diamine], the half-maximal inhibitory concentration (IC50) stood at 48 nM.

`COc1ncc(-c2ccnc(NC3CCC(O)CC3)n2)c(CC2CC2)n1` (stereo not shown) [Example 6f, 4-(4′-(cyclopropylmethyl)-2′-methoxy-4,5′-bipyrimidin-2-ylamino)cyclohexanol]: the half-inhibitory concentration (IC50) was found to be 4000 nM.

For `CC(C)(CO)CNc1nccc(-c2cnc(N)nc2CC2CC2)n1` [Example 15g, 3-(2′-amino-4′-(cyclopropylmethyl)-4,5′-bipyrimidin-2-ylamino)-2,2-dimethylpropan-1-ol], the IC50 amounted to 2230 nM.

Regarding `CNc1ncc(-c2ccnc(N[C@H]3CC[C@H](OC)CC3)n2)c(CC2CC2)n1` [Example 14o, 4′-(cyclopropylmethyl)-N^2-((1r,4r)-4-methoxycyclohexyl)-N^2′-methyl-4,5′-bipyrimidine-2,2′-diamine], the IC50 is 374 nM.

Regarding `N#Cc1ccc(Nc2nccc(-c3cnc(N)nc3CC3CC3)n2)cc1` [Example 15x, 4-(2′-amino-4′-(cyclopropylmethyl)-4,5′-bipyrimidin-2-ylamino)benzonitrile], the 50% inhibitory concentration (IC50) is 27 nM.

Turning to `Nc1ncc(-c2ccnc(NC3CCCOC3)n2)c(CC2CC2)n1` (stereo not shown) [Example 15d, 4′-(cyclopropylmethyl)-N2-(tetrahydro-2H-pyran-3-yl)-4,5′-bipyrimidine-2,2′-diamine], the concentration for half-maximal inhibition (IC50) worked out at 1500 nM.

In the case of `Nc1ncc(-c2ccnc(NCc3cccnc3)n2)c(CC2CC2)n1` [Example 15q], the concentration for half-maximal inhibition (IC50) came out at 1290 nM.

On to `CNc1ncc(-c2ccnc(NC3CCCC3)n2)c(CC2CC2)n1` [Example 14h, N^2-cyclopentyl-4′-(cyclopropylmethyl)-N^2′-methyl-4,5′-bipyrimidine-2,2′-diamine], for which the IC50 came out at 1360 nM.

Turning to `CC(O)CNc1ncc(-c2ccnc(Nc3ccncc3)n2)c(CC2CC2)n1` (stereo not shown) [Example 10j, 1-(4′-(cyclopropylmethyl)-2-(pyridin-4-ylamino)-4,5′-bipyrimidin-2′-ylamino)propan-2-ol], the IC50 came out at 29 nM.

As to `Nc1ncc(-c2ccnc(Nc3ccc(Cl)cc3)n2)c(CC2CC2)n1` [Example 15o, N^2-(4-chlorophenyl)-4′-(cyclopropylmethyl)-4,5′-bipyrimidine-2,2′-diamine], the IC50 turned out to be 57 nM.

`CCNc1ncc(-c2ccnc(Nc3ccncc3)n2)c(CC2CC2)n1` [Example 10b, 4′-(cyclopropylmethyl)-N^2′-ethyl-N^2-(pyridin-4-yl)-4,5′-bipyrimidine-2,2′-diamine]: the half-inhibitory concentration (IC50) turned out to be 20 nM.

For the compound `CNc1ncc(-c2ccnc(NCCCN)n2)c(CC2CC2)n1` [Example 14s, N^2-(3-aminopropyl)-4′-(cyclopropylmethyl)-N^2′-methyl-4,5′-bipyrimidine-2,2′-diamine], the IC50 was found to be 7130 nM.

On to `CCc1nc(NCC(C)(C)O)ncc1-c1ccnc(Nc2ccc(C#N)cc2)n1` [Example 37a, 4-(4′-ethyl-2′-(2-hydroxy-2-methylpropylamino)-4,5′-bipyrimidin-2-ylamino)benzonitrile], for which the IC50 came out at 31 nM.

`Cc1ncc(-c2ccnc(N[C@H]3CC[C@H](O)CC3)n2)c(CC2CC2)n1` [Example 6c, (1r,4r)-4-(4′-(cyclopropylmethyl)-2′-methyl-4,5′-bipyrimidin-2-ylamino)cyclohexanol]: the IC50 is 775 nM.

Regarding `CC(C)(O)CNc1ncc(-c2ccnc(Nc3ccc(C#N)cc3)n2)c(C(F)(F)F)n1` [Example 25, 4-(2′-(2-hydroxy-2-methylpropylamino)-4′-(trifluoromethyl)-4,5′-bipyrimidin-2-ylamino)benzonitrile], the IC50 is 117 nM.

Take `CNc1ncc(-c2ccnc(NC3CCCCC3)n2)c(CC2CC2)n1` [Example 14e, N^2-Cyclohexyl-4′-cyclopropylmethyl-N^2′-methyl-[4,5′]bipyrimidinyl-2,2′-diamine]: the IC50 is 1100 nM.

On to `C[C@@H](CO)Nc1ncc(-c2ccnc(Nc3ccncc3)n2)c(CC2CC2)n1` [Example 10q, (S)-2-(4′-(cyclopropylmethyl)-2-(pyridin-4-ylamino)-4,5′-bipyrimidin-2′-ylamino)propan-1-ol], for which the 50% inhibitory concentration (IC50) worked out at 53 nM.

On to `CC(C)(O)CNc1ncc(-c2ccnc(Nc3ccncc3)n2)c(C(F)(F)F)n1` [Example 24, 2-methyl-1-(2-(pyridin-4-ylamino)-4′-(trifluoromethyl)-4,5′-bipyrimidin-2′-ylamino)propan-2-ol], for which the IC50 worked out at 96 nM.

Regarding `c1cc(Nc2nccc(-c3cnc(NC4CCC4)nc3CC3CC3)n2)ccn1` [Example 10f, N^2′-cyclobutyl-4′-(cyclopropylmethyl)-N^2-(pyridin-4-yl)-4,5′-bipyrimidine-2,2′-diamine], the half-maximal inhibitory concentration (IC50) came out at 45.5 nM.

`c1cc(Nc2nccc(-c3cnc(NC4CCCC4)nc3CC3CC3)n2)ccn1` [Example 10e, N2′-cyclopentyl-4′-(cyclopropylmethyl)-N2-(pyridin-4-yl)-4,5′-bipyrimidine-2,2′-diamine]: the IC50 is 78.5 nM.

In the case of `CC(C)(C)Nc1ncc(-c2ccnc(Nc3ccncc3)n2)c(CC2CC2)n1` [Example 10i, N^2′-tert-butyl-4′-(cyclopropylmethyl)-N^2-(pyridin-4-yl)-4,5′-bipyrimidine-2,2′-diamine], the IC50 was found to be 35 nM.

Regarding `CC(C)Nc1ncc(-c2ccnc(Nc3ccncc3)n2)c(CC2CC2)n1` [Example 12a, 4′-Cyclopropylmethyl-N^2′-isopropyl-N^2-pyridin-4-yl-[4,5′]bipyrimidinyl-2,2′-diamine], the IC50 was determined as 34.5 nM.
